Experiments:
total serum cholesterol = assay: Reduction of serum cholesterol level (total serum cholesterol, Liebermann-Burchard auto-analyzer); type: in vivo, male laboratory rats; settings: rat
Protocol: 1. Reduction of serum cholesterol level
85 male laboratory rats having a body weight of about 250 gm. The animals were individually kept in Makrolon-cages under controlled conditions. Food and water were freely accessible to the animals at all times, except on the day on which the blood samples were taken.
The test compounds were administered once daily per os by means of an esophageal sound.
Determination of total cholesterol in serum (mgm/100 ml) with the auto-analyzer according to Liebermann-Burchard (see J. Levine et al, Technicon-Symposium, 1967, Vol. 1, pg. 25).
The total serum cholesterol was determined in all test animals prior to the beginning of the test (day O), as well as on the 8th, 14th and 21st day. The blood sample was taken from the retrobulbar venous plexus. The animals were fasted for about 16 hours prior to determination of the serum cholesterol.

[1] = system: adult laboratory mice of the NMRI-strain; assay: CNS-Depression: Sliding test (loss of holding reflex on inclined glass plate); type: in vivo; settings: po, mouse; dose at which 50% of animals begin to slide off the glass plate; Probit-method
Protocol: A statistically significant number of adult laboratory mice of the NMRI-strain are used as test animals. The test compound is administered perorally as a suspension in tylose by means of an esophageal sound, and the animal is placed on an inclined plate of glass. If the administered dose of the test compound has a CHS-depressing effect upon the animal, the treated mouse loses its normal holding reflex and slides off the plate. The test is repeated at varying dosage levels, and a median effective dose (ED50) is determined by the so-called Probit-method, i.e. the dose at which 50% of the test animals begin to slide off the glass plate.

[2] = system: adult laboratory mice of the NMRI-strain; assay: CNS-Depression: Ataxia (atactic walking); type: in vivo; settings: po, mouse; dose at which ataxia occurs in 50% of the animals; Probit-method
Protocol: A statistically significant number of adult laboratory mice of the NMRI-strain are used as the test animals. The test compound is administered perorally as a suspension in tylose by means of an esophageal sound, and the treated animal is observed for evidence of atactic (uncoordinated) walking. The test is repeated at varying dosage levels, and a median effective dose (ED50) is determined by the Probit-method, i.e. the dose at which ataxia occurs in 50% of the animals.

[3] = day 0 (prior to the beginning of the test, baseline), group of 25 mgm/kg once daily per os
[4] = day 8, 25 mgm/kg once daily per os
[5] = day 14, 25 mgm/kg once daily per os
[6] = day 21, 25 mgm/kg once daily per os
[7] = day 0 (prior to the beginning of the test, baseline), group of 50 mgm/kg once daily per os
[8] = day 8, 50 mgm/kg once daily per os
[9] = day 14, 50 mgm/kg once daily per os
[10] = day 21, 50 mgm/kg once daily per os

| SMILES | Average value of total serum cholesterol (total serum cholesterol; [3]) [mgm/100 ml] | Average value of total serum cholesterol (total serum cholesterol; [4]) [mgm/100 ml] | Average value of total serum cholesterol (total serum cholesterol; [5]) [mgm/100 ml] | Average value of total serum cholesterol (total serum cholesterol; [6]) [mgm/100 ml] | ED50 [1] [mg/kg] | ED50 [2] [mg/kg] | Average value of total serum cholesterol (total serum cholesterol; [7]) [mgm/100 ml] | Average value of total serum cholesterol (total serum cholesterol; [8]) [mgm/100 ml] | Average value of total serum cholesterol (total serum cholesterol; [9]) [mgm/100 ml] | Average value of total serum cholesterol (total serum cholesterol; [10]) [mgm/100 ml] |
| --- | --- | --- | --- | --- | --- | --- | --- | --- | --- | --- |
| CC(Cc1ccc2c(c1)OCO2)N1CCN(c2ccc(Cl)cc2Cl)CC1 (stereo not drawn) [A, n-[1-(3,4-methylenedioxy-phenyl)-propyl-(2)]-N'-(2,4-dichloro-phenyl)-piperazine] | 96.7 | 27.5 | 12.5 | 13.0 | 190 | 160 | – | – | – | – |
| COc1ccc(N2CCN(C(C)Cc3ccc4c(c3)OCO4)CC2)c(C)c1 (stereo not drawn) [B, n-[1-(3,4-methylenedioxy-phenyl)-propyl(2)]-N'-(2-methyl-4-methoxy-phenyl)-piperazine] | 97.9 | 35.2 | 21.3 | 21.2 | 960 | 120 | – | – | – | – |
| CC(Cc1ccc2c(c1)OCO2)N1CCN(c2ccccc2Cl)CC1 (stereo not drawn) [Compound C, n-[1-(3,4-methylenedioxy-phenyl)-propyl(2)]-N'-(2-chlorophenyl)-piperazine] | 38.3 | 31.7 | 24.3 | 26.2 | 2.2 | 2.2 | – | – | – | – |
| COc1ccccc1N1CCN(C(C)Cc2ccc3c(c2)OCO3)CC1 (stereo not drawn) [Compound D] | – | – | – | – | > 14 | 39 | 112.9 | 87.3 | 86.3 | 82.1 |
| Cc1cccc(C)c1N1CCN(C(C)Cc2ccc3c(c2)OCO3)CC1 (stereo not drawn) [E, n-[1-(3,4-methylenedioxy-phenyl)-propyl(2)]-N'-(2,6-dimethyl-phenyl)-piperazine] | – | – | – | – | 25 | 105 | 107.3 | 71.2 | 61.7 | 63.5 |

Source: patent US4094980A, “N-[1-(3',4'-methylenedioxy-phenyl)-propyl-(2)]-N'-phenyl-piperazines and salts thereof” (Boehringer Ingelheim GmbH, priority 1974, dated 1978)
